Holding throughout (assay type): functional
In assay [1] the test system is Escherichia coli. The assay is described as follows: Antibacterial activity against Escherichia coli DH10B expressing blaKPC gene by Etest method.
The test system of assay [2] is Escherichia coli. The assay can be described thus: Antibacterial activity against Escherichia coli harboring pCOL plasmid expressing blaKPC gene by Etest method.
The test system of assay [3] is Pseudomonas aeruginosa. The assay can be described thus: Antibacterial activity against Pseudomonas aeruginosa KG2505 by Etest method.
The test system of assay [4] is Escherichia coli. The assay is described as follows: Antibacterial activity against Escherichia coli harboring pRYC plasmid expressing blaKPC gene by Etest method.
Assay [5] concerns Klebsiella pneumoniae. The assay can be described thus: Antibacterial activity against Klebsiella pneumoniae GR by Etest method.
Assay [6] concerns Escherichia coli. The assay can be described thus: Antibacterial activity against Escherichia coli harboring pNGR plasmid expressing blaKPC gene by Etest method.
The test system of assay [7] is Escherichia coli. The assay can be described thus: Antibacterial activity against Escherichia coli harboring pNYC plasmid expressing blaKPC gene by Etest method.
The subject of assay [8] is Klebsiella pneumoniae. The assay is described as follows: Antibacterial activity against Klebsiella pneumoniae 633 by Etest method.
Assay [9] deals with Pseudomonas aeruginosa. The assay can be described thus: Antibacterial activity against Pseudomonas aeruginosa KG2505 harboring pCOL plasmid by Etest method.
In assay [10] the test system is Klebsiella pneumoniae. The assay can be described thus: Antibacterial activity against Klebsiella pneumoniae KN2303 by Etest method.
For assay [11], the system named is Pseudomonas aeruginosa. The assay can be described thus: Antibacterial activity against Pseudomonas aeruginosa 2404 plasmid by Etest method.
For assay [12], the system named is Escherichia coli. The assay is described as follows: Antibacterial activity against Escherichia coli harboring pBC633 plasmid expressing blaKPC gene by Etest method.
Assay [13] has as its system Escherichia coli. The assay is described as follows: Antibacterial activity against Escherichia coli harboring pBC2303 expressing blaKPC gene plasmid by Etest method.
In assay [14] the test system is Klebsiella pneumoniae. The assay can be described thus: Antibacterial activity against Klebsiella pneumoniae YC by Etest method.

Converted amounts (≈) assume the structure as drawn.

Broadly, the MIC is the least concentration at which growth counts as inhibited. Lower therefore signals a more susceptible organism. Turning to `CO/N=C(\C(=O)N[C@@H]1C(=O)N2C(C(=O)[O-])=C(C[N+]3(C)CCCC3)CS[C@H]12)c1csc(N)n1`, the MIC against Escherichia coli [1] was 1 µg/mL (≈ 2.08 µM); against Escherichia coli [2] it was 0.02 µg/mL (≈ 0.0416 µM); in the assay on Pseudomonas aeruginosa [3] it was 0.5 µg/mL (≈ 1.04 µM); with Escherichia coli [4] it was over 32 µg/mL; against Klebsiella pneumoniae [5], over 32 µg/mL; in the assay with Escherichia coli [6], 1.5 µg/mL (≈ 3.12 µM). Further, the MIC in the assay on Escherichia coli [7] is 1 µg/mL (≈ 2.08 µM); against Klebsiella pneumoniae [8], over 32 µg/mL; in the assay on Pseudomonas aeruginosa [9] it was over 32 µg/mL; with Klebsiella pneumoniae [10], over 32 µg/mL; in the assay on Pseudomonas aeruginosa [11], over 32 µg/mL; in the assay with Escherichia coli [12], 4 µg/mL (≈ 8.32 µM). Further, the MIC with Escherichia coli [13] was determined as 3 µg/mL (≈ 6.24 µM).
For `C[C@H]1[C@H](NC(=O)/C(=N\OC(C)(C)C(=O)O)c2csc(N)n2)C(=O)N1S(=O)(=O)O` [AZTREONAM], the MIC turned out to be 24 µg/mL (≈ 55.1 µM) against Escherichia coli [1], 16 µg/mL (≈ 36.7 µM) in the assay on Escherichia coli [6], 16 µg/mL (≈ 36.7 µM) against Escherichia coli [7] and 192 µg/mL (≈ 441 µM) with Escherichia coli [13].
For the compound `CO[C@@]1(NC(=O)Cc2cccs2)C(=O)N2C(C(=O)O)=C(COC(N)=O)CS[C@@H]21` [CEFOXITIN], the MIC is 2 µg/mL (≈ 4.68 µM) in the assay on Escherichia coli [1]; 2 µg/mL (≈ 4.68 µM) against Escherichia coli [2]; 0.25 µg/mL (≈ 0.585 µM) against Pseudomonas aeruginosa [3]; over 32 µg/mL in the assay on Escherichia coli [4]; over 32 µg/mL with Klebsiella pneumoniae [5]; 4 µg/mL (≈ 9.36 µM) in the assay with Escherichia coli [6]. The MIC with Klebsiella pneumoniae [14] is over 32 µg/mL; against Escherichia coli [7], 2 µg/mL (≈ 4.68 µM); in the assay on Klebsiella pneumoniae [8], over 32 µg/mL; against Pseudomonas aeruginosa [9], over 32 µg/mL; with Klebsiella pneumoniae [10], over 32 µg/mL; in the assay on Pseudomonas aeruginosa [11] it was over 64 µg/mL. The MIC against Escherichia coli [12] was over 32 µg/mL; with Escherichia coli [13], 8 µg/mL (≈ 18.7 µM).
Turning to `CC(C)(O/N=C(\C(=O)N[C@@H]1C(=O)N2C(C(=O)[O-])=C(C[n+]3ccccc3)CS[C@H]12)c1csc(N)n1)C(=O)O` [CEFTAZIDIME], the MIC was 8 µg/mL (≈ 14.6 µM) against Escherichia coli [1]; 0.19 µg/mL (≈ 0.348 µM) in the assay with Escherichia coli [2]; 1 µg/mL (≈ 1.83 µM) with Pseudomonas aeruginosa [3]; over 256 µg/mL against Escherichia coli [4]; over 256 µg/mL with Klebsiella pneumoniae [5]; 4 µg/mL (≈ 7.32 µM) against Escherichia coli [6]. Besides, the MIC is 64 µg/mL (≈ 117 µM) with Klebsiella pneumoniae [14]; 4 µg/mL (≈ 7.32 µM) in the assay on Escherichia coli [7]; over 256 µg/mL in the assay with Klebsiella pneumoniae [8]; over 256 µg/mL in the assay with Pseudomonas aeruginosa [9]; over 256 µg/mL in the assay on Klebsiella pneumoniae [10]; over 256 µg/mL against Pseudomonas aeruginosa [11]. The MIC with Escherichia coli [12] was determined as 32 µg/mL (≈ 58.5 µM); in the assay on Escherichia coli [13], 256 µg/mL (≈ 468 µM).
`CC(=O)OCC1=C(C(=O)O)N2C(=O)[C@@H](NC(=O)Cc3cccs3)[C@H]2SC1` [CEPHALOTHIN]: the MIC with Escherichia coli [1] is 256 µg/mL (≈ 646 µM); with Escherichia coli [2], 2 µg/mL (≈ 5.04 µM); in the assay with Pseudomonas aeruginosa [3], 2 µg/mL (≈ 5.04 µM); in the assay on Escherichia coli [4], over 256 µg/mL; in the assay with Klebsiella pneumoniae [5], over 256 µg/mL; against Escherichia coli [6] it was over 256 µg/mL. The MIC with Klebsiella pneumoniae [14], in the assay on Escherichia coli [7], in the assay on Klebsiella pneumoniae [8], against Pseudomonas aeruginosa [9], against Klebsiella pneumoniae [10] and with Pseudomonas aeruginosa [11] was over 256 µg/mL throughout. Moreover, the MIC against Escherichia coli [12] and in the assay with Escherichia coli [13] was over 256 µg/mL in each case.
Consider `CCN1CCN(C(=O)N[C@@H](C(=O)N[C@@H]2C(=O)N3[C@@H]2SC(C)(C)[C@@H]3C(=O)O)c2ccccc2)C(=O)C1=O` [PIPERACILLIN], for which the MIC against Escherichia coli [1] is over 256 µg/mL; in the assay on Escherichia coli [2], 1.5 µg/mL (≈ 2.9 µM); in the assay with Pseudomonas aeruginosa [3], 0.38 µg/mL (≈ 0.734 µM); in the assay on Escherichia coli [4], over 256 µg/mL; against Klebsiella pneumoniae [5], over 256 µg/mL; with Escherichia coli [6], 128 µg/mL (≈ 247 µM). For the same compound, the MIC against Klebsiella pneumoniae [14], in the assay with Escherichia coli [7], in the assay on Klebsiella pneumoniae [8], with Pseudomonas aeruginosa [9], with Klebsiella pneumoniae [10] and against Pseudomonas aeruginosa [11] was over 256 µg/mL each time. Besides, the minimal inhibitory concentration (MIC) against Escherichia coli [12] and with Escherichia coli [13] was over 256 µg/mL each time.

Source of the values: ChEMBL document CHEMBL1255302, “Genetic structures at the origin of acquisition of the beta-lactamase bla KPC gene” (2008).
